The source made the active and inactive calls. No cut-off for these calls is given here.
How the values were obtained:
[1] = Drug metabolism in mouse hepatocytes assessed as oxygenation by measuring M6 metabolite formation; type: ADME, cell-based, Hepatocyte
[2] = Half life in mouse at 25 mg/kg, po by LC-MS/MS analysis; type: ADME, organism-based; details: in vivo
Vimentin (Homo sapiens) [3] = molecular target: Vimentin (Homo sapiens) (UniProt P08670); assay: Induction of Vimentin phosphorylation in human HT-1080 cells at 100 nM incubated for 24 hrs by Western blot analysis; type: cell-based
Vimentin (Homo sapiens) [4] = molecular target: Vimentin (Homo sapiens) (UniProt P08670); assay: Induction of Vimentin phosphorylation in human RD cells at 100 nM incubated for 24 hrs by Western blot analysis; type: cell-based
Vimentin (Homo sapiens) [5] = molecular target: Vimentin (Homo sapiens) (UniProt P08670); assay: Induction of Vimentin phosphorylation in human RD cells at 1 uM incubated for 24 hrs by Western blot analysis; type: cell-based; details: filed as activator
RD = assay: cells; details: Homo sapiens, 72 h
[6] = Metabolic stability in CD-1 mouse liver microsomes assessed as half life at 100 uM measured upto 60 mins in presence of NADPH by LC-MS/MS analysis; type: ADME, Microsome; details: mouse, microsomes, 1 h, 100 µM
[7] = Cmax in mouse at 25 mg/kg, po by LC-MS/MS analysis; type: ADME, organism-based; design: dose 25 mg/kg, route po; details: in vivo
HT-1080 = assay: cells; details: Homo sapiens, HT-1080, 72 h
[8] = Metabolic stability in CD-1 mouse liver microsomes assessed as intrinsic clearance at 100 uM measured upto 60 mins in presence of NADPH by LC-MS/MS analysis; type: ADME, Microsome; details: mouse, microsomes, 1 h, 100 µM
[9] = Drug metabolism in mouse hepatocytes assessed as dealkylation by measuring M1 metabolite formation; type: ADME, cell-based, Hepatocyte
Vimentin (Homo sapiens) [10] = molecular target: Vimentin (Homo sapiens) (UniProt P08670); assay: Induction of Vimentin phosphorylation in human GCT cells at 100 nM incubated for 24 hrs by Western blot analysis; type: cell-based
Vimentin (Homo sapiens) [11] = molecular target: Vimentin (Homo sapiens) (UniProt P08670); assay: Induction of Vimentin phosphorylation in human GCT cells at 1 uM incubated for 24 hrs by Western blot analysis; type: cell-based; details: filed as activator
[12] = Drug metabolism in mouse hepatocytes assessed as dealkylation by measuring M3 metabolite formation; type: ADME, cell-based, Hepatocyte
[13] = AUC (0 to infinity) in mouse at 25 mg/kg, po by LC-MS/MS analysis; type: ADME, organism-based; design: dose 25 mg/kg, route po; details: in vivo
[14] = Drug metabolism in mouse hepatocytes assessed as oxygenation by measuring M7 metabolite formation; type: ADME, cell-based, Hepatocyte
[15] = AUC (0 to last) in mouse at 25 mg/kg, po by LC-MS/MS analysis; type: ADME, organism-based; design: dose 25 mg/kg, route po; details: in vivo
MCF7 = assay: cells; details: Homo sapiens, MCF7, 72 h
[16] = Drug metabolism in mouse hepatocytes assessed as oxygenation by measuring M5 metabolite formation; type: ADME, cell-based, Hepatocyte
[17] = Drug metabolism in mouse hepatocytes assessed as dealkylation by measuring M4 metabolite formation; type: ADME, cell-based, Hepatocyte
Vimentin (Homo sapiens) [18] = molecular target: Vimentin (Homo sapiens) (UniProt P08670); assay: Induction of Vimentin phosphorylation in human HT-1080 cells at 1 uM incubated for 24 hrs by Western blot analysis; type: cell-based; details: filed as activator
[19] = Drug metabolism in mouse hepatocytes assessed as dealkylation and oxygenation by measuring M2 metabolite formation; type: ADME, cell-based, Hepatocyte
[20] = Tmax in mouse at 25 mg/kg, po by LC-MS/MS analysis; type: ADME, organism-based; details: in vivo
[21] = Metabolic stability in CD-1 mouse liver microsomes assessed as parent compound remaining at 100 uM measured after 60 mins in presence of NADPH by LC-MS/MS analysis; type: ADME, Microsome; details: read-out: Stability
GCT = assay: cells; details: Homo sapiens, 72 h
[22] = Kinetic solubility of the compound in DPBS buffer at pH 7.4 incubated for 16 hrs under shaking condition by HPLC analysis; type: physicochemical; details: read-out: Kinetic_solubility

Sequence of Vimentin (Homo sapiens) (P08670 whole entry): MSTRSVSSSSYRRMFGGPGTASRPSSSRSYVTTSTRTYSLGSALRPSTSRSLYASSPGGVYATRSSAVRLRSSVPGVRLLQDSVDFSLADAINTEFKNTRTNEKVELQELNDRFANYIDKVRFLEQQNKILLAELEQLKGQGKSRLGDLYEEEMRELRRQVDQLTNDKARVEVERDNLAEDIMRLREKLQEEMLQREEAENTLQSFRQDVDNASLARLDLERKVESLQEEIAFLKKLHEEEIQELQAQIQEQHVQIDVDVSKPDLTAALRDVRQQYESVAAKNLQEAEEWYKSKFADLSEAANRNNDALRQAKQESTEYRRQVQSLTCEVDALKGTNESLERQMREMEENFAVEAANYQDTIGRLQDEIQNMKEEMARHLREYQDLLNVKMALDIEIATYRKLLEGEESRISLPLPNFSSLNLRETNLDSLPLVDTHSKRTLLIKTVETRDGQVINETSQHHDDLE

Clc1cccc(N2CCN(c3cnnc4c(Cl)cccc34)CC2)c1
Drug metabolism [1]: Metabolite_Detected
half-life [2]: 274 min
Activity (Vimentin (Homo sapiens) [3]): inactive
Activity (Vimentin (Homo sapiens) [4]): inactive
Activity (Vimentin (Homo sapiens) [5]): Active
IC50 (RD): 3100 nM
t1/2 [6]: 11.9 min
Cmax [7]: 110 ng/mL
IC50 (HT-1080): 1560 nM
microsomal intrinsic clearance [8]: 116.1 µL/min/mg
Drug metabolism [9]: Metabolite_Detected
Activity (Vimentin (Homo sapiens) [10]): inactive
Activity (Vimentin (Homo sapiens) [11]): Active
Drug metabolism [12]: Metabolite_Detected
AUC(0-inf) [13]: 339 ng·h/mL
Drug metabolism [14]: Metabolite_Detected
AUC(0-t) [15]: 310 ng·h/mL
IC50 (MCF7): > 20000 nM
Drug metabolism [16]: Metabolite_Detected
Drug metabolism [17]: Metabolite_Detected
Activity (Vimentin (Homo sapiens) [18]): Active
Drug metabolism [19]: Metabolite_Detected
Tmax [20]: 30 min
remaining at 1 h, 100 µM [21]: 3.2%
IC50 (GCT): 1690 nM
solubility kinetic at 16 h [22]: < 1 µM
